Experimental data as given in patent US6545030B1, “1-heterocycle substituted diarylamines” (Warner-Lambert Company, priority 1999, dated 2003).
Where a name gives a salt, the structure may show the parent alone.

melting point	SMILES
324 to 330 °C	Cc1cc(I)ccc1Nc1ccc(Cl)cc1C1=NC(C)(C)CO1 (as salt: salt) [Example 1, [4-Chloro-2-(4,4-Dimethyl-4,5-dihydro-oxazol-2-yl)-phenyl]-(4-iodo-2-methyl-phenyl)-amine]
144.4 to 145.5 °C	Cc1cc(I)ccc1Nc1c(-c2nnco2)ccc(F)c1F [Example 9, (2,3-Difluoro-6-[1,3,4]oxadiazol-2-yl-phenyl)-(4-iodo-2-methyl-phenyl)-amine]
231.8 to 232.8 °C	Cc1cc(I)ccc1Nc1c(-c2nnc(S)o2)ccc(F)c1F [Example 10, 5-[3,4-Difluoro-2-(4-iodo-2-methyl-phenylamino)-phenyl]-[1,3,4]oxadiazole-2-thiol]
